From patent publication US5696117A, “Benzoxazine antimicrobial agents” (Ortho Pharmaceutical Corporation, priority 1995, dated 1997)
Where a name gives a salt, the structure may show the parent alone.

Molecular target: T1, Kinase A and SpoOF (Bacillus subtilis, UniProt P16497)
T1 construct: made in house; host or cells: recombinant E. coli (overexpression)
T1 sequence (P16497 1-606): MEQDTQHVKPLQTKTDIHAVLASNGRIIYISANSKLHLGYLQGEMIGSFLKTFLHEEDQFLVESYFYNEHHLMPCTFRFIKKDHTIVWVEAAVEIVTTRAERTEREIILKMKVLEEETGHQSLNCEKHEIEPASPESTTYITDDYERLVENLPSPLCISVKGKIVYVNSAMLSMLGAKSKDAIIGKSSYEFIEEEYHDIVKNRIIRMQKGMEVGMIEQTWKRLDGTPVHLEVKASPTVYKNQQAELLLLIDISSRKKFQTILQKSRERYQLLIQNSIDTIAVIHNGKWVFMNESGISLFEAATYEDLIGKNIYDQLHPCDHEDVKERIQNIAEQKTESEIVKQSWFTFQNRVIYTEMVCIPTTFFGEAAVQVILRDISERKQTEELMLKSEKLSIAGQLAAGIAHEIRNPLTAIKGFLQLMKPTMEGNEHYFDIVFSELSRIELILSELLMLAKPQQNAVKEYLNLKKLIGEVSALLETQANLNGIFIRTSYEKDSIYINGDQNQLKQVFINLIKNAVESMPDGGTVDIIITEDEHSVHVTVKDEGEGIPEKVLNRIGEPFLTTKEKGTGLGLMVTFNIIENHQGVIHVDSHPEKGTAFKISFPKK
Assay: Autophosphorylation of Kinase A and Transphosphorylation of SpoOF Assay (HPK in vitro assay)
Type: biochemical
Conditions: inhibition of KinA autophosphorylation / SpoOF transphosphorylation, inhibitor concentrations from 1 to 500 μM
Method: 1. Autophosphorylation of Kinase A and Transphosphorylation of SpoOF Assay
To study the effect of the compounds of the present invention on the signal transduction process in bacteria, the inhibiting effect of the compounds on the sporulation operon proteins Kinase A and SpoOF was examined. Specifically, the inhibition of autophosphorylation of Kinase A and the transphosphorylation of SpoOF was determined in the following assays. The SpoOF response regulator is the primary substrate for phosphorylation by the protein kinase, Kin A, involved in the sporulation process in bacteria. See D. Burbulys, K. A. Trach, J. A. Hoch, Cell, 64, 545-552 (1991). SpoOF and KinA were prepared from recombinant E. coli overexpressing the proteins (J. Cavanagh et al, Amino Acids, 6, 131-140 (1994) and references therein).
The following stock reagents were either prepared and used promptly or stored at the indicated temperature:
8× Salts: 2M KCl (5 mL), 1M MgCl2 (800 mL), 1M CaCl2 (100 mL), 10 mg/mL phenylmethylsulfonyl fluoride (200 mL), 1M dithioreitol (50 mL), 0.25M Na2 EDTA (32 mL) and H2 O 3.82 mL (-20° C.)
5× Loading Dye: 0.5M TRIS-HCl-pH 6.8 (7.5 mL), 10% SDS (2 mL) 0.1% bromophenol blue (0.5 mL), 100% glycerol (3 mL) and 12.5M 2-mercaptoethanol (0.3 mL)
1-1.3 mg/mL KinA:15 mM TRIS-HCl, pH 8.0, 6 mM KCl; 4 mM 2-mercaptoethanol; 40% glycerol (-20° C.)
1 mg/mL SpoOF: 17.5 mM TRIS-HCl, pH 8.0; 0.7 mM KCl; 0.7 mM MgCl2; 0.7 mM CaCl2; 5mM 2-mercaptoethanol; 30% Glycerol (-20° C.)
5% Stacking Gel: 40% 29:1 acrylamide:bis acrylamide (1.25 mL), 0.5M TRIS-HCl, pH 6.8 (2.5 mL), 10% SDS (0.1 mL), D-H2 O (6.15 mL) 10% ammonium persulfate (100 mL) and TEMED (25 mL)
SDS Running Buffer: TRIS-BASE (3.02 g), glycine (14.4 g) SDS (1 g), D-H2 O (to 1 L)
The reaction mixture was prepared from 8× Salts (87 μL), 1M TRIS, pH 8 (118 μL), 50% glycerol (63 μL), SpoOF (14.1 μL) and KinA (7.0 μL). Microcentrifuge tubes were charged with the reaction mixture (18.5 μL) and a 1.0 mM solution of the test compound in 5% DMSO (18.5 μL), and incubated for 15 min on ice. 100 mM ATP solution (3.0 μl, containing 625 μCi [^32 P]ATP) was added, and the mixture left for 10 minutes at room temperature. The reaction was quenched with 5× loading dye (10 μL per tube) and the samples were loaded on a prepared 5% Stacking Gel, or stored on dry ice until ready for use. The prepared wells were filled with SDS Running Buffer, samples were loaded into the wells, and 80 volts were applied to the gel until the dye front reached the bottom of the stacking gel. The voltage was then increased to 250 volts until electrophoresis was complete. Radioactive bands in the gel corresponding to phosphorylated KinA and SpoOF were imaged and quantitated with a phosphoimager.
If either enzyme was inhibited (as evidenced by the absence of labelled protein in the developed gel), an IC50 was calculated by running the assay with a range of inhibitor concentrations from 1 to 500 μM. After electrophoresis of the reaction mixtures, percent inhibition was determined by measuring the concentration of radioactive phosphorus with a phosphoimager and calculating the values using a software program (BioRad Molecular Analyst). IC50 values of less than 500 μM are considered active.

Row | SMILES | IC50 [µM]
1 | COC(=O)c1ccc(CN2C(=O)C(CCOc3ccc(CCN)cc3)Oc3ccccc32)cc1 (centres unmarked) [Compound 104, 2-{2-[4-(2-Aminoethyl)phenoxy]ethyl}-4-(4-carbomethoxybenzyl)-3,4-dihydro-3-oxo-2H-1,4-benzoxazine] | 24
2 | CC(C)(C)OC(=O)NCc1ccc(OCCC2Oc3ccccc3N(Cc3ccccc3Cl)C2=O)cc1 (centres unmarked) [Compound 13, 2-[2-[4-(t-Butoxycarbonylaminomethyl)phenoxy]ethyl]-4-(2-chlorobenzyl)-3,4-dihydro-3-oxo-2H-1,4-benzoxazine] | 272
3 | CC(C)(C)OC(=O)NCCc1ccc(OCCC2Oc3ccccc3N(Cc3cccc(Cl)c3)C2=O)cc1 (centres unmarked) [Compound 144, 2-[2-[4-(2-(t-Butoxycarbonylamino)ethyl)phenoxy]ethyl]-4-(3-chlorobenzyl)-3,4-dihydro-3-oxo-2H-1,4-benzoxazine] | 348
4 | NCc1cccc(OCCC2Oc3ccccc3N(Cc3ccccc3Cl)C2=O)c1 (centres unmarked) [Compound 12, 2-[2-[3-(Aminomethyl)phenoxy]ethyl]-4-(2-chlorobenzyl)-3,4-dihydro-3-oxo-2H-1,4-benzoxazine] | 140
5 | CN1C(=O)C(CCOc2ccc(CCNC(=NC(=O)OC(C)(C)C)NC(=O)OC(C)(C)C)cc2)Oc2ccccc21 (centres unmarked) [Compound 59, 2-{2-[4-[2-(N,N'-Bis-tert-butoxycarbonylguanidino)ethyl]phenoxy]ethyl}-3,4-dihydro-4-methyl-3-oxo-2H-1,4-benzoxazine] | 473
6 | O=C(O)CCc1cccc(OCCC2Oc3ccccc3N(Cc3cccc(Cl)c3)C2=O)c1 (centres unmarked) [Compound 127, 3-[3-[2-{4-(3-Chlorobenzyl)-3,4-dihydro-3-oxo-2H-1,4-benzoxazin-2-yl}ethoxy]phenyl]propionic Acid] | 251
7 | CC(C)(C)OC(=O)NCCc1cccc(OCCC2Oc3ccccc3N(Cc3ccccc3Cl)C2=O)c1 (centres unmarked) [Compound 15, 2-[2-[3-(2-(t-Butoxycarbonylamino)ethyl)phenoxy]ethyl]-4-(2-chlorobenzyl)-3,4-dihydro-3-oxo-2H-1,4-benzoxazine] | 165
8 | COc1ccc2c(c1)OC(CCOc1ccc(CCNC(=N)N)cc1)C(=O)N2Cc1cccc([N+](=O)[O-])c1 (centres unmarked) [Compound 100, 3,4-Dihydro-2-{2-[4-(2-guanidinoethyl)phenoxy]ethyl}-7-methoxy-4-(3-nitrobenzyl)-3-oxo-2H-1,4-benzoxazine] | 32
9 | Cl.N=C(N)NCCc1ccc(OCCC2Oc3cc([N+](=O)[O-])ccc3N(Cc3cccc(Cl)c3)C2=O)cc1 (centres unmarked) [Compound 84, 3,4-Dihydro-4-(3-chlorobenzyl)-2-{2-[4-(2-guanidinoethyl)phenoxy]ethyl}-7-nitro-3-oxo-2H-1,4-benzoxazine Monohydrochloride] | 30

Results, then the compound that gave them:

Row | IC50 [µM] | SMILES
10 | 26 | N=C(N)NCCc1ccc(OCCC2Oc3ccccc3N(Cc3csc(Cl)c3)C2=O)cc1 (centres unmarked) [Compound 48, 4-(2-Chloro-4-thienylmethyl)-3,4-dihydro-2-{2-[4-(2-guanidinoethyl)phenoxy]ethyl}-3-oxo-2H-1,4-benzoxazine]
11 | 32 | N=C(N)NCCc1ccc(OCCC2Oc3ccccc3N(Cc3cccc([N+](=O)[O-])c3)C2=O)cc1 (centres unmarked) [Compound 95, 3,4-Dihydro-2-{2-[4-(2-guanidinoethyl)phenoxy]ethyl}-4-(3-nitrobenzyl)-3-oxo-2H-1,4-benzoxazine]
12 | 72 | N=C(N)NCCc1ccc(OCCC2Oc3ccccc3N(Cc3cccc(O)c3)C2=O)cc1 (centres unmarked) [Compound 36, 3,4-Dihydro-2-{2-[4-(2-guanidinoethyl)phenoxy]ethyl}-4-(3-hydroxybenzyl)-3-oxo-2H-1,4-benzoxazine]
13 | 166 | COC(=O)c1cccc(CN2C(=O)C(CCOc3ccc(CCN)cc3)Oc3ccccc32)c1 (centres unmarked) [Compound 106, 2-{2-[4-(2-Aminoethyl)phenoxy]ethyl}-4-(3-carbomethoxybenzyl)-3,4-dihydro-3-oxo-2H-1,4-benzoxazine]
14 | 54 | COc1ccccc1CN1C(=O)C(CCOc2ccc(CCNC(=N)N)cc2)Oc2ccccc21 (centres unmarked) [Compound 29, 3,4-Dihydro-2-{2-[4-(2-guanidinoethyl)phenoxy]ethyl}-4-(2-methoxybenzyl)-3-oxo-2H-1,4-benzoxazine]
15 | 17 | N=C(N)NCCc1ccc(OCCC2Oc3ccccc3N(Cc3ccc4ccccc4c3)C2=O)cc1 (centres unmarked) [Compound 45, 3,4-Dihydro-2-{2-[4-(2-guanidinylethyl)phenoxy]ethyl}-4-(2-naphthylmethyl)-3-oxo-2H-1,4-benzoxazine]
16 | 46 | N=C(N)NCCc1ccc(OCCC2Oc3ccccc3N(Cc3cccc(F)c3)C2=O)cc1 (centres unmarked) [Compound 31, 3,4-Dihydro-4-(3-fluorobenzyl)-2-{2-[4-(2-guanidinoethyl)phenoxy]ethyl}-3-oxo-2 H-1,4-benzoxazine]
17 | 13 | N=C(N)NCCc1ccc(OCCC2Oc3ccccc3N(Cc3cccc4ccccc34)C2=O)cc1 (centres unmarked) [Compound 43, 3,4-Dihydro-2-{2-[4-(2-guanidinoethyl)phenoxy]ethyl}-4-(1-naphthylmethyl)-3-oxo-2H-1,4-benzoxazine]
18 | 26 | N=C(N)NCc1ccc(OCCC2Oc3ccccc3N(Cc3ccc(Cl)cc3)C2=O)cc1 (centres unmarked) [Compound 21, 4-(4-Chlorobenzyl)-2-[2-[4-(guanidinomethyl)phenoxy]ethyl]-3,4-dihydro-3-oxo-2H-1,4-benzoxazine]
19 | 444 | N=C(N)NCCc1ccc(OCCC2Oc3ccccc3N(Cc3ccncc3)C2=O)cc1 (centres unmarked) [Compound 42, 3,4-Dihydro-2-{2-[4-(2-guanidinoethyl)phenoxy]ethyl}-3-oxo-4-(4-picolyl)-2H-1,4-benzoxazine]
20 | 44 | N=C(N)NCCc1ccc(OCCC2Oc3ccccc3N(Cc3ccccc3)C2=O)cc1 (centres unmarked) [Compound 28, 4-Benzyl-3,4-dihydro-2-{2-[4-[2-guanidinoethyl]phenoxy]ethyl}-3-oxo-2H-1,4-benzoxazine Hydrochloride 0.7 Hydrate]
